Source: the supplement of paper PMC10307832

Tests used:
Test in all cases: relative viability (nuclei count vs DMSO), 5 days (fraction); higher = more cells survive
[1] = compound: CC1=C(C(=NN1)C)CC2=C(C3=C(S2)N(C(=O)N(C3=O)C)CC(C)C)C(=O)N4C[C@@H](CO4)O + Cc1nc(NC(=O)N2CCC[C@H]2C(N)=O)sc1-c1ccnc(C(C)(C)C(F)(F)F)c1 [Alpelisib] (partner 2 µM)
In short: (§1)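 Dosing by pin tool came one day after lung cancer cell lines were seeded in 1536-well plates, using either one drug or a fixed anchor-drug dose plus five library-drug doses (not always all listed) in √10 steps. After 5 days, nuclei were counted on 4× images. Relative viability is treated-well nuclei count divided by vehicle-well nuclei count, and values are medians of duplicate plates.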

IDH-C35 + Phenformin = compound: Cc1ccccc1C(C(=O)NC1CCCCC1)N(C(=O)Cn1ccnc1C)c1cccc(F)c1 [IDH-C35] + N=C(N)NC(=N)NCCc1ccccc1 [Phenformin] (partner 250 µM)
In short: as §1

[2] = compound: CC1=C(C(=NN1)C)CC2=C(C3=C(S2)N(C(=O)N(C3=O)C)CC(C)C)C(=O)N4C[C@@H](CO4)O + Cc1nc(Nc2ncc(C(=O)Nc3c(C)cccc3Cl)s2)cc(N2CCN(CCO)CC2)n1 [Dasatinib] (partner 0.075 µM)
In short: as §1

IDH-C35 + Foretinib = compound: Cc1ccccc1C(C(=O)NC1CCCCC1)N(C(=O)Cn1ccnc1C)c1cccc(F)c1 [IDH-C35] + COc1cc2c(Oc3ccc(NC(=O)C4(C(=O)Nc5ccc(F)cc5)CC4)cc3F)ccnc2cc1OCCCN1CCOCC1 [Foretinib] (partner 0.25 µM)
In short: as §1

Cell Line	relative viability ([1]; first compound 0.0025 µM)	relative viability ([1]; first compound 0.007906 µM)	relative viability ([1]; first compound 0.025 µM)	relative viability ([1]; first compound 0.07906 µM)	relative viability ([1]; first compound 0.25 µM)	relative viability (IDH-C35 + Phenformin; first compound 0.08 µM)	relative viability (IDH-C35 + Phenformin; first compound 0.253 µM)	relative viability (IDH-C35 + Phenformin; first compound 0.8 µM)	relative viability (IDH-C35 + Phenformin; first compound 2.53 µM)	relative viability (IDH-C35 + Phenformin; first compound 8 µM)	relative viability ([2]; first compound 0.0025 µM)	relative viability ([2]; first compound 0.007906 µM)	relative viability ([2]; first compound 0.025 µM)	relative viability ([2]; first compound 0.07906 µM)	relative viability ([2]; first compound 0.25 µM)	relative viability (IDH-C35 + Foretinib; first compound 0.08 µM)	relative viability (IDH-C35 + Foretinib; first compound 0.253 µM)	relative viability (IDH-C35 + Foretinib; first compound 0.8 µM)	relative viability (IDH-C35 + Foretinib; first compound 2.53 µM)	relative viability (IDH-C35 + Foretinib; first compound 8 µM)
201T	1.04	0.995	0.996	0.971	0.949	0.469	0.431	0.436	0.466	0.438	0.579	0.624	0.6	0.59	0.551	1.12	1.06	1.08	1.01	1.05
A549	0.838	0.96	0.744	0.758	0.961	0.188	0.189	0.151		0.19						0.881	0.863	0.968	1.05	0.835
A-427	1.02	1.21	1.08	1.03	1.07	0.359	0.3	0.338	0.314	0.312	0.746	0.84	0.727	0.733	0.764	1.01	1	0.967	0.903	0.944
ABC-1	1.04	1.07	1.14	1.01	0.944	0.261	0.218	0.247	0.235	0.23		0.346		0.453	0.517	1.16	0.967	0.918	1.08	1.21
BEN	0.976	1.01	0.826	0.858	0.987	0.292	0.246	0.257	0.279	0.282	0.296	0.289	0.277	0.274	0.298	0.631	0.685	0.616	0.629	0.593
CAL-12T	1.27	1.3	1.03	1.06	1.58	0.546	0.618	0.556	0.589	0.498	0.49	0.475	0.465	0.317	0.343	1.13	1.22	1.1	1.01	1.13
COR-L23	0.782	0.709	0.59	0.759	0.739	0.478	0.42	0.423	0.421	0.382	0.561	0.533	0.427	0.375	0.449	0.969	0.95	0.891	1.01	1.03
COR-L 105	1.03	0.896	1.12	1.01	0.999	0.479	0.479	0.555	0.484	0.457	0.477	0.298	0.34	0.273	0.341	0.948	1.16	0.898	1.07	0.898
Calu-6	1.3	0.898	0.892	0.895	1.09											0.884	0.899	0.908	0.919	0.868
ChaGo-K-1						0.482	0.473	0.511	0.465	0.531	0.616	0.605	0.565	0.503	0.513	0.871	0.973	0.913	0.928	0.839
EBC-1	0.973	0.973	0.765	0.822	0.814											0.0931	0.109	0.0986	0.108	0.109
EKVX	0.906	1.07	0.835	0.923	0.734	0.245	0.219	0.227	0.229	0.189	0.61	0.53	0.544	0.302	0.303	0.832	1.02	0.75	0.703	0.614
EMC-BAC-2	0.809	0.854	0.721	0.691	0.814	0.5	0.584	0.583	0.508	0.493	0.341	0.364	0.326	0.336	0.34	0.947	1.04	1.1	0.925	0.944
EPLC-272H	0.99	0.943	0.99	0.899	0.829	0.33	0.275	0.314	0.294	0.296	0.527	0.376	0.418	0.24	0.305	0.659	0.828	0.751	0.71	0.733
H3255	0.768	0.676	0.697	0.759	0.736	0.381	0.38	0.365	0.363	0.344	0.42	0.319	0.283	0.343	0.347	1.06	0.838	0.886	1.04	0.854
HARA	1.01	0.922	0.837	0.768	0.801	0.522	0.461	0.435		0.386	0.243	0.263	0.28	0.231	0.235	0.876	0.906	0.885		1.01
HCC-15	0.953	0.914	0.901	0.854	0.942	0.521	0.464	0.501		0.45	0.605	0.601	0.682	0.574	0.656	1.07	0.974	0.938		0.869
HCC-44	0.817	0.851	0.798	0.795	0.777	0.227	0.293	0.254	0.166	0.182										
HCC-78	0.409	0.343	0.315	0.319	0.299	0.608	0.682	0.644	0.798	0.745	0.392	0.486	0.374	0.366	0.236	0.586	0.57	0.563	0.555	0.525

Cell Line	relative viability ([1]; first compound 0.0025 µM)	relative viability ([1]; first compound 0.007906 µM)	relative viability ([1]; first compound 0.025 µM)	relative viability ([1]; first compound 0.07906 µM)	relative viability ([1]; first compound 0.25 µM)	relative viability (IDH-C35 + Phenformin; first compound 0.08 µM)	relative viability (IDH-C35 + Phenformin; first compound 0.253 µM)	relative viability (IDH-C35 + Phenformin; first compound 0.8 µM)	relative viability (IDH-C35 + Phenformin; first compound 2.53 µM)	relative viability (IDH-C35 + Phenformin; first compound 8 µM)	relative viability ([2]; first compound 0.0025 µM)	relative viability ([2]; first compound 0.007906 µM)	relative viability ([2]; first compound 0.025 µM)	relative viability ([2]; first compound 0.07906 µM)	relative viability ([2]; first compound 0.25 µM)	relative viability (IDH-C35 + Foretinib; first compound 0.08 µM)	relative viability (IDH-C35 + Foretinib; first compound 0.253 µM)	relative viability (IDH-C35 + Foretinib; first compound 0.8 µM)	relative viability (IDH-C35 + Foretinib; first compound 2.53 µM)	relative viability (IDH-C35 + Foretinib; first compound 8 µM)
HCC-366	0.489	0.475	0.396	0.54	0.49	0.658	0.629	0.621		0.578	0.601	0.813	0.836	0.635	0.789	0.986	0.981	0.937		0.938
HCC-827	1.01	1.01	0.962	0.93	0.939	0.425	0.348	0.384	0.397	0.406	0.288	0.317	0.32	0.203	0.24	1.05	0.964	1.01	1.03	1.05
HOP-62	0.959	1.15	1.01	0.862	0.696	0.718	0.649	0.634	0.618	0.677	0.672	0.852	0.74	0.466	0.559	1.11	1.01	0.999	1.09	1.13
IA-LM	0.832	0.812	0.858	0.749	0.991											1.06	1.24	1.12	1.12	1.1
LC-2-ad	0.985	0.85	0.842	0.897	0.921	0.571	0.585	0.603		0.604	0.726	0.474	0.626	0.545	0.588	0.917	0.938	0.904		0.908
LCLC-97TM1	0.276	0.206	0.257	0.188	0.228	0.388	0.453	0.465	0.407	0.346	0.898	0.897	0.735	0.852	0.878	0.921	0.865	0.947	1.02	0.954
LCLC-103H	1.06	1	0.959	0.957	0.896	0.308	0.338	0.344	0.364	0.34	0.669	0.493	0.489	0.357	0.513	0.795	0.717	0.85	0.754	0.736
LK-2	1.06	1.03	1.09	1.05	1.08	0.564	0.474	0.476	0.27	0.623	0.231	0.296	0.308	0.253	0.275	1.23	1.36	1.27	1.12	1.48
LOU-NH91	0.734	0.626	0.791	0.799	0.708	0.78	0.784	0.685	0.752	0.497	0.61	0.588	0.55	0.54	0.619	0.949	0.946	0.92	0.918	0.913
LU99A	0.559	0.589	0.581	0.568	0.611	1.04	0.941	0.919	0.776	0.858	0.584	0.502	0.533	0.508	0.462	0.939	0.915	0.81	0.69	0.85
NCI-H522						0.643	0.65	0.764	0.629	0.659	0.971	0.97	0.763	0.649	0.662					
NCI-H1299	1.07	1.08	1.01	1.09	1.11											1.1	1.07	1.01	1.06	1.09
NCI-H1623						0.604	0.638	0.573	0.613	0.557	0.505	0.513	0.549	0.442	0.453	0.91	0.854	0.811	0.896	0.861
NCI-H1650						0.486	0.423	0.436	0.462	0.379	0.425	0.362	0.287	0.457	0.227	1.11	1.13	1.23	0.879	1.14
NCI-H1703	0.366	0.211	0.32	0.309	0.299											0.321	0.335	0.334	0.367	0.348
NCI-H1792	0.82	0.624	0.699	0.58	0.555	0.257	0.258	0.244	0.483	0.334	0.836	0.947	0.813	0.569	0.687					
NCI-H2342						0.572	0.566	0.579	0.651	0.527	0.297	0.348	0.283	0.322	0.352	0.969	1.02	1.17	1.16	1.01
SW 900						0.669	0.591	0.56	0.615	0.438	0.768	0.696	0.614	0.476	0.559	0.729	0.909	0.877	0.6	0.926
